In assay [1] the target is Epidermal Growth Factor Receptor Tyrosine Kinase (EGFRTK) (Homo sapiens, UniProt P00533). As to the kind of experiment: Inhibition of EGFRTK. The format is biochemical. The conditions noted are these: compound at 10 micromolar. The source says:
(§1) Blanks for a particular enzyme indicate that inhibition was not found.

The target in assay [2] is p55 fyn (Homo sapiens, UniProt P06241). The assay can be described thus: Inhibition of p55 fyn. It is filed as biochemical. The settings on record: compound at 10 micromolar.
From the text: as §1

Chain of Epidermal Growth Factor Receptor Tyrosine Kinase (EGFRTK) (P00533 25-1210): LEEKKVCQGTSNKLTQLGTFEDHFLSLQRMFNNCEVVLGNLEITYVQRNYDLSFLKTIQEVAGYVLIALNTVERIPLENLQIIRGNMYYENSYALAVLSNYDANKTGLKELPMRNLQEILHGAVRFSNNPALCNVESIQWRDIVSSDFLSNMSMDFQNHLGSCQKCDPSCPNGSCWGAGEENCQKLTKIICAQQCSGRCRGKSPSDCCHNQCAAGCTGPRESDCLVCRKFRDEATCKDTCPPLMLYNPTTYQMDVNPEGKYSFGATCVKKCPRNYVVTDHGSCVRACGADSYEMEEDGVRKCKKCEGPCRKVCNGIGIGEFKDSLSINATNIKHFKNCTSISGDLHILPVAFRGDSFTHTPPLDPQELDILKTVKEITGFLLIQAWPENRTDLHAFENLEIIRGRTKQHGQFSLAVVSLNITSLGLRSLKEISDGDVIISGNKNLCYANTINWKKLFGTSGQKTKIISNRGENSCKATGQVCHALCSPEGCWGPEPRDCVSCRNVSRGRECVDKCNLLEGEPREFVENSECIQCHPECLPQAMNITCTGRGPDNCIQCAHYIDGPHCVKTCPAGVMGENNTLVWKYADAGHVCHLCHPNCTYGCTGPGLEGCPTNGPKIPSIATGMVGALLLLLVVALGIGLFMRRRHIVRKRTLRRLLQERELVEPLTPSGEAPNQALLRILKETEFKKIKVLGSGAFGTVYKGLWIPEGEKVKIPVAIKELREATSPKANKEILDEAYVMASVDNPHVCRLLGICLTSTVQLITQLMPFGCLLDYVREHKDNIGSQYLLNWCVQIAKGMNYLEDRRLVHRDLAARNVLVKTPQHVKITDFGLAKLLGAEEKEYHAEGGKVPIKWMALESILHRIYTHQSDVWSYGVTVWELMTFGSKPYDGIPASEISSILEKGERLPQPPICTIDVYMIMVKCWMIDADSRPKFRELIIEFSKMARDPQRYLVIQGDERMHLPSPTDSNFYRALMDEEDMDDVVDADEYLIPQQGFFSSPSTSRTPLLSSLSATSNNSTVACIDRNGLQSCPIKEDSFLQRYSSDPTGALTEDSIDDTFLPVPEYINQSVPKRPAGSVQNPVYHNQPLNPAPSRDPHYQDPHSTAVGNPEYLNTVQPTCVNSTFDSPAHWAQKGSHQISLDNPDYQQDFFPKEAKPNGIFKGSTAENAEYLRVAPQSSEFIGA
Chain of p55 fyn (P06241 whole entry): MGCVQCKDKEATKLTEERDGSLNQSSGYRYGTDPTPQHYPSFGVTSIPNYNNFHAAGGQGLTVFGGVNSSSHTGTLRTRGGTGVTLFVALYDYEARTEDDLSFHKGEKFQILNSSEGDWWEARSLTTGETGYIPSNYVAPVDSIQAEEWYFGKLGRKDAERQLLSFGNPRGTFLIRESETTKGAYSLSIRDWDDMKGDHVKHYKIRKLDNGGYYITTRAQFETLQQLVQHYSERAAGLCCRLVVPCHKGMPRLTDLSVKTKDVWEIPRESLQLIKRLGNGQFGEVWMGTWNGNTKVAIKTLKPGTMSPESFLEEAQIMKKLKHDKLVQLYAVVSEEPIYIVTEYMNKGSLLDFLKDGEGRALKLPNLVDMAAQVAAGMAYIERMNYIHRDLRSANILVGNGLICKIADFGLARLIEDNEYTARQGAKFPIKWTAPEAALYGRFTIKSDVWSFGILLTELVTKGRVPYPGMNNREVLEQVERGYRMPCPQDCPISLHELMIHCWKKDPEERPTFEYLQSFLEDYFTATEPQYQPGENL

As for `COc1cccc([C@H](C)NC(=O)c2cc3cc(F)ccc3[nH]2)c1` [Compound 1aa], the inhibition – broadly, how much of the control response was suppressed – at 10 µM worked out at 12% in assay [1] and 10% in assay [2]. Compound `COc1ccc(CNC(=O)c2cc3cc(F)ccc3[nH]2)cc1` [Compound 1ee] registered an inhibition at 10 µM in assay [1] of 16%.

With `O=C(NCc1cccc(I)c1)c1cc2cc(F)ccc2[nH]1` [Compound 1ff], testing at 10 µM in assay [1] gave an inhibition of 24%. On the same count and under the same terms, the same measure for `Cc1ccccc1CNC(=O)c1cc2cc(F)ccc2[nH]1` [Compound 1ffff]: 12%. In assay [2], `CCCN(CCC)C(=O)c1cc2cc(F)ccc2[nH]1` [Compound 1g] showed an inhibition at 10 µM of 19%. On to `O=C(NCc1ccc(O)c(O)c1)c1cc2cc(F)ccc2[nH]1` [Compound 1gggg], for which, in assay [1], at 10 µM the inhibition was 25%. As for `O=C(NCc1cc(OCc2ccccc2)cc(OCc2ccccc2)c1)c1cc2cc(F)ccc2[nH]1` [Compound 1iiii], the inhibition at 10 µM in assay [1] is 12%. Consider `O=C(NCc1cccc(C(F)(F)F)c1)c1cc2cc(F)ccc2[nH]1` [Compound 1jj], for which, in assay [2], the inhibition at 10 µM came out at 18%. `O=C(Nc1ccc(Oc2ccccc2)cc1)c1cc2cc(F)ccc2[nH]1` [Compound 1k]: in assay [2], 10 µM produced 13% inhibition. In assay [1], `O=C(NCc1ccc(Br)cc1)c1cc2cc(F)ccc2[nH]1` [Compound 1kkkk] displayed an inhibition at 10 µM of 30%. `O=C(NCc1cc(F)cc(C(F)(F)F)c1)c1cc2cc(F)ccc2[nH]1` [Compound 1mmm] displayed an inhibition at 10 µM in assay [2] of 14%. Turning to `O=C(NCc1ccc([N+](=O)[O-])cc1)c1cc2cc(F)ccc2[nH]1` [Compound 1mmmm], testing at 10 µM in assay [2] gave an inhibition of 29%. Turning to `CCCOc1ccc(CNC(=O)c2cc3cc(F)ccc3[nH]2)cc1O` [Compound 1nnnn], the inhibition at 10 µM in assay [1] was 17%; in assay [2], 11%. The compound `O=C(Nc1ccc(CO)cc1)c1cc2cc(F)ccc2[nH]1` [Compound 1oo] had an inhibition at 10 µM in assay [2] of 17%. Still for that read-out and setting: in the case of `COc1cc(CNC(=O)c2cc3cc(F)ccc3[nH]2)ccc1OCc1ccccc1` [Compound 1qqq] it was 11%. In assay [1], `O=C(NCCCCCCO)c1cc2cc(F)ccc2[nH]1` [Compound 1qqqq] had an inhibition at 10 µM of 18%.

For `O=C(NCc1ccc(Cl)cc1)c1cc2cc(F)ccc2[nH]1` [Compound 1rrr], testing at 10 µM in assay [2] gave an inhibition of 15%. `Cc1cc(C)cc(NC(=O)c2cc3cc(F)ccc3[nH]2)c1` [Compound 1t] returned an inhibition at 10 µM in assay [2] of 11%. Same read-out and setting: the same measure for `O=C(NCCc1c[nH]c2ccccc12)c1cc2cc(F)ccc2[nH]1` [Compound 1u]: 10%; for `O=C(c1cc2cc(F)ccc2[nH]1)N1CCOCC1` [Compound 1w]: 10%. The same measure, in the same setting: in the case of `Cc1cccc(Cl)c1CNC(=O)c1cc2cc(F)ccc2[nH]1` [Compound 1xx] it was 14%. As for `O=C(NCC1(O)CCCCC1)c1[nH]c2ccc(F)cc2c1-c1ccccc1` [Compound 2b], the inhibition at 10 µM came to 19% in assay [1] and 13% in assay [2]. In assay [1], `CCCOc1ccc(NC(=O)c2[nH]c3ccc(F)cc3c2-c2ccccc2)cc1CO` [Compound 2d] yielded an inhibition at 10 µM of 23%. In assay [1], `O=C(Nc1ccc(OCc2ccccc2)c(CO)c1)c1[nH]c2ccc(F)cc2c1-c1ccccc1` [Compound 2e] showed an inhibition at 10 µM of 10%. As to `O=C(NCc1ccc(F)cc1C(F)(F)F)c1[nH]c2ccc(F)cc2c1-c1ccccc1` [Compound 2hh], in assay [1], at 10 µM the inhibition was 12%. With `O=C(NCc1ccc(C(F)(F)F)cc1)c1[nH]c2ccc(F)cc2c1-c1ccccc1` [Compound 2j], at 10 µM the inhibition in assay [1] was 20%. In turn, `O=C(NCc1ccc([N+](=O)[O-])cc1)c1[nH]c2ccc(F)cc2c1-c1ccccc1` [Compound 2kk] yielded an inhibition at 10 µM in assay [2] of 24%. In the case of `O=C(NCc1cc(Br)ccc1F)c1[nH]c2ccc(F)cc2c1-c1ccccc1` [Compound 2ll], at 10 µM the inhibition in assay [1] was 10%. In assay [2], `O=C(NCc1ccc(F)cc1Cl)c1[nH]c2ccc(F)cc2c1-c1ccccc1` [Compound 2o] showed an inhibition at 10 µM of 12%. With `O=C(NCc1cc(F)cc(F)c1)c1[nH]c2ccc(F)cc2c1-c1ccccc1` [Compound 2y], the inhibition at 10 µM in assay [1] was 20%.

The record behind these values is patent publication US7427608B2, “Protection against and treatment of hearing loss” (The Research Foundation of State University of New York, priority 2001, dated 2008).
